# Results: US10676468B2, “N-(3-heteroarylaryl)-4-arylarylcarboxamides and analogs as hedgehog pathway inhibitors and use thereof” (IMPACT Therapeutics, Inc., priority 2012, dated 2020)
# Structures can show the parent of a compound that is named as a salt. Where two headings read alike, the source gives them in different places.
# Test system: Hedgehog Signaling Pathway
# Test: Gli-Luc reporter gene cell assay in C3H10T1/2/Gli-Luc cells stimulated with Shh
# Assay type: cell-based, mouse
# Conditions: 30 nM Shh, luciferase activity (RLU), read-out: IC50 values of compounds that inhibit Hh pathway
# Source text: The Application of Reporter Gene Cell Assay for the Determination of the Inhibitory Activity of N-(3-(1H-benzo[d]imidazol-2-yl)-4-chlorophenyl)-2-methyl-4-((2S,6R)-2,6-dimethylmorpholino) benzamide and Analogs on Hedgehog Signaling Pathway
# The binding of Sonic hedgehog (Shh) to its receptor Patched 1 initiates numerous intracellular signal transmission, and leads to the nuclear translocation of Gli and the elevated transcription of Gli target genes. When C3H10T1/2 cells are stably transfected with the Gli-Luc plasmids containing the luciferase gene under the control of Gli response element and stimulated with Shh, the expression of luciferase is elevated. Luciferase activity is indicative of the hedgehog signaling pathway activity. Therefore, the inhibitory activity of compounds on hedgehog signaling pathway can be measured using the luciferase activity when the transfected cells are stimulated with Shh.
# The day before experiment, C3H10T1/2/Gli-Luc cells in log phase of growth were seeded into 96 well plate at a density of 20000 cells per well. The cells were maintained in DMEM (Hyclone) supplemented with 10% FBS (Hyclone) and incubated at 37° C. with 5% CO2 overnight. The compounds to be examined were diluted into 7 different concentrations by series of dilutions (⅓ and 1/10), and the eighth point of concentration is the DMSO control. Those solutions were diluted 100-fold in the fresh growth medium. The cells were taken out of the incubator and the medium of cultured cells were removed. Then, each well was added in an orderly manner with 80 μL of fresh growth medium, 20 μL of medium pre-dilution of positive compound and compounds to be tested, as well as 100 μL of growth medium containing 30 nM of Shh. The cells are returned to the incubator, and incubated for 24 hours.
# Measurement of luciferase activity: After taking the 96 well plate out of the incubator, the supernatants were discarded and the cells were washed twice with PBS. Thereafter, each well was dispensed with 20 μL of lysis buffer (Promega E1531), and the plate was shaken for 30 min at room temperature. Following transferring 5 μL of cell lysate into 384 well plate (Greiner 781074), adding 25 μL of luciferase reaction buffer (Promega E1501) into each well and mixing the plate, the relative light unit (RLU) was immediately captured by VarioSkan Flash.
# The data were analyzed with Prism 5 software (GraphPad). The relative light unit (RLU) was plotted against the log concentration of testing compound, and the obtained plot was fitted with non-linear curve fitting equation to calculate IC50 values. The curve fitting equation is Y (RLU)=Bottom+(Top−Bottom)/(1+10^((X−Log IC50))). X is the logarithm of concentration. Y is the measure of relative light unit (RLU).
# The calculated IC50 value is a measurement of the inhibitory activity of compound to Hh pathway.
SMILES,IC50 (24 hours) [nM],"IC50 (Mus musculus, C3H 10T1/2, 24 h) [nM]"
"C[C@@H]1CN(c2ccc(C(=O)Nc3ccc(Cl)c(-c4nc5cscc5[nH]4)c3)c(C(F)(F)F)c2)C[C@H](C)N1C [Example 200, N-(3-(1H-thieno[3,4-d]imidazol-2-yl)-4-chlorophenyl)-2-(trifluoromethyl)-4-((3S,5R)-3,4,5-trimethylpiperazin-1-yl) Benzamide]",0.28,–
"CCN1[C@H](C)CN(c2ccc(C(=O)Nc3ccc(Cl)c(-c4ncc(C(C)C)[nH]4)c3)c(Cl)c2)C[C@@H]1C [Example 192, N-(3-(5-isopropyl-1H-imidazol-2-yl)-4-chlorophenyl)-2-chloro-4-((3S,5R)-4-ethyl-3,5-dimethylpiperazin-1-yl)benzamide Dihydrochloride]",–,0.52
"CC(C)c1cnc(-c2cc(NC(=O)c3cc(F)c(N4C[C@@H](C)N(C)[C@@H](C)C4)cc3Cl)ccc2Cl)[nH]1 [Example 191, N-(3-(5-isopropyl-1H-imidazol-2-yl)-4-chlorophenyl)-2-chloro-5-fluoro-4-((3S,5R)-3,4,5-trimethylpiperazin-1-yl)benzamide Dihydrochloride]",–,0.34
"Cc1ccc(-c2cnc(-c3cc(NC(=O)c4ccc(N5C[C@@H](C)N(C)[C@@H](C)C5)cc4Cl)ccc3Cl)[nH]2)o1 [Example 151, N-(3-(5-(5-methylfuran-2-yl)-1H-imidazol-2-yl)-4-chlorophenyl)-2-chloro-4-((3S,5R)-3,4,5-trimethylpiperazin-1-yl)benzamide]",–,2
"CCN1[C@H](C)CN(c2ccc(C(=O)Nc3ccc(Cl)c(-c4ncc(C5CC5)[nH]4)c3)c(Cl)c2)C[C@@H]1C [Example 194, N-(3-(5-cyclopropyl-1H-imidazol-2-yl)-4-chlorophenyl)-2-chloro-4-((3S,5R)-4-ethyl-3,5-dimethylpiperazin-1-yl)benzamide Dihydrochloride]",–,0.63
"C[C@@H]1CN(c2ccc(C(=O)Nc3ccc(Cl)c(-c4ncc(-c5cccn5C)[nH]4)c3)c(Cl)c2)C[C@H](C)N1C [Example 162, N-(3-(5-(1-methyl-1H-pyrrol-2-yl)-1H-imidazol-2-yl)-4-chlorophenyl)-2-chloro-4-((3S,5R)-3,4,5-trimethylpiperazin-1-yl)benzamide]",–,0.3
"Cc1ccc(-c2cnc(-c3cc(NC(=O)c4ccc(N5C[C@@H](C)N(C)[C@@H](C)C5)cc4C)ccc3Cl)[nH]2)o1 [Example 152, N-(3-(5-(5-methylfuran-2-yl)-1H-imidazol-2-yl)-4-chlorophenyl)-2-methyl-4-((3S,5R)-3,4,5-trimethylpiperazin-1-yl)benzamide]",–,1.2
"CCc1cnc(-c2cc(NC(=O)c3ccc(N4C[C@@H](C)N(CC)[C@@H](C)C4)cc3Cl)ccc2Cl)[nH]1 [Example 169, N-(3-(5-ethyl-1H-imidazol-2-yl)-4-chlorophenyl)-2-chloro-4-((3S,5R)-4-ethyl-3,5-dimethylpiperazin-1-yl)benzamide]",–,0.67
"CCc1cnc(-c2cc(NC(=O)c3ccc(N4C[C@@H](C)N(C)[C@@H](C)C4)cc3Cl)ccc2Cl)[nH]1 [Example 188, N-(3-(5-ethyl-1H-imidazol-2-yl)-4-chlorophenyl)-2-chloro-4-((3S,5R)-3,4,5-trimethylpiperazin-1-yl)benzamide Dihydrochloride]",–,1
"CCN1[C@H](C)CN(c2ccc(C(=O)Nc3ccc(Cl)c(-c4ncc(-c5ccsc5)[nH]4)c3)c(Cl)c2)C[C@@H]1C [Example 165, N-(3-(5-(thiophen-3-yl)-1H-imidazol-2-yl)-4-chlorophenyl)-2-chloro-4-((3S,5R)-4-ethyl-3,5-dimethylpiperazin-1-yl)benzamide Dihydrochloride]",–,0.19
"CCc1cnc(-c2cc(NC(=O)c3ccc(N4C[C@@H](C)N(C)[C@@H](C)C4)c(F)c3C)ccc2Cl)[nH]1 [Example 168, N-(3-(5-ethyl-1H-imidazol-2-yl)-4-chlorophenyl)-2-methyl-3-fluoro-4-((3S,5R)-3,4,5-trimethylpiperazin-1-yl)benzamide]",–,0.38
"C[C@@H]1CN(c2cc(Cl)c(C(=O)Nc3ccc(Cl)c(-c4ncc(C5CC5)[nH]4)c3)cc2F)C[C@H](C)N1C [Example 193, N-(3-(5-cyclopropyl-1H-imidazol-2-yl)-4-chlorophenyl)-2-chloro-5-fluoro-4-((3S,5R)-3,4,5-trimethylpiperazin-1-yl)benzamide Dihydrochloride]",–,0.56
"C[C@@H]1CN(c2cc(Cl)c(C(=O)Nc3ccc(Cl)c(-c4ncc(-c5ccsc5)[nH]4)c3)cc2F)C[C@H](C)N1C [Example 142, N-(3-(5-(thiophen-3-yl)-1H-imidazol-2-yl)-4-chlorophenyl)-2-chloro-5-fluoro-4-((3S,5R)-3,4,5-trimethylpiperazin-1-yl)benzamide]",–,0.28
"CC(C)c1cnc(-c2cc(NC(=O)c3ccc(N4C[C@@H](C)N(C)[C@@H](C)C4)cc3C(F)(F)F)ccc2Cl)[nH]1 [Example 171, N-(3-(5-isopropyl-1H-imidazol-2-yl)-4-chlorophenyl)-2-(trifluoro-methyl)-4-((3S,5R)-3,4,5-trimethylpiperazin-1-yl)benzamide]",–,0.46
"Cc1cnc(-c2cc(NC(=O)c3ccc(N4C[C@@H](C)N(C)[C@@H](C)C4)cc3C)ccc2Cl)[nH]1 [Example 186, N-(3-(5-methyl-1H-imidazol-2-yl)-4-chlorophenyl)-2-methyl-4-((3S,5R)-3,4,5-trimethylpiperazin-1-yl)benzamide Dihydrochloride]",–,3.4
"CCc1cnc(-c2cc(NC(=O)c3ccc(N4C[C@@H](C)N(C)[C@@H](C)C4)cc3C(F)(F)F)ccc2Cl)[nH]1 [Example 167, N-(3-(5-ethyl-1H-imidazol-2-yl)-4-chlorophenyl)-2-(trifluoromethyl)-4-((3S,5R)-3,4,5-trimethylpiperazin-1-yl)benzamide]",–,28
"C[C@@H]1CN(c2ccc(C(=O)Nc3ccc(Cl)c(-c4ncc(-c5ccsc5)[nH]4)c3)c(C(F)(F)F)c2)C[C@H](C)N1C [Example 164, N-(3-(5-(thiophen-3-yl)-1H-imidazol-2-yl)-4-chlorophenyl)-2-(trifluoromethyl)-4-((3S,5R)-3,4,5-trimethylpiperazin-1-yl) benzamide Dihydrochloride]",0.24,–
"CCN1[C@H](C)CN(c2ccc(C(=O)Nc3ccc(Cl)c(-c4ncc(-c5ccco5)[nH]4)c3)c(Cl)c2)C[C@@H]1C [Example 150, N-(3-(5-(furan-2-yl)-1H-imidazol-2-yl)-4-chlorophenyl)-2-chloro-4-((3S,5R)-4-ethyl-3,5-dimethylpiperazin-1-yl)benzamide]",–,0.5
"CCc1cnc(-c2cc(NC(=O)c3ccc(N4C[C@@H](C)N(C)[C@@H](C)C4)cc3C)ccc2Cl)[nH]1 [Example 187, N-(3-(5-ethyl-1H-imidazol-2-yl)-4-chlorophenyl)-2-methyl-4-((3S,5R)-3,4,5-trimethylpiperazin-1-yl)benzamide Dihydrochloride]",–,0.45
"CCN1[C@H](C)CN(c2ccc(C(=O)Nc3ccc(Cl)c(-c4nc5cscc5[nH]4)c3)c(Cl)c2)C[C@@H]1C [Example 203, N-(3-(1H-thieno[3,4-d]imidazol-2-yl)-4-chlorophenyl)-2-chloro-4-((3S,5R)-4-ethyl-3,5-dimethylpiperazin-1-yl)benzamide]",–,0.29
"Cc1c(C(=O)Nc2ccc(Cl)c(-c3ncc(C(C)C)[nH]3)c2)ccc(N2C[C@@H](C)N(C)[C@@H](C)C2)c1F [Example 190, N-(3-(5-isopropyl-1H-imidazol-2-yl)-4-chlorophenyl)-2-methyl-3-fluoro-4-((3S,5R)-3,4,5-trimethylpiperazin-1-yl)benzamide Dihydrochloride]",–,0.2
"Cc1cc(N2C[C@@H](C)N(C)[C@@H](C)C2)ccc1C(=O)Nc1ccc(Cl)c(-c2ncc(-c3cccn3C)[nH]2)c1 [Example 161, N-(3-(5-(1-methyl-1H-pyrrol-2-yl)-1H-imidazol-2-yl)-4-chlorophenyl)-2-methyl-4-((3S,5R)-3,4,5-trimethylpiperazin-1-yl)benzamide]",–,0.38
